Laboratory results taken from article PMC5118716, “Structural basis of TRPA1 inhibition by HC-030031 utilizing species-specific differences” (Scientific Reports, 2016).
Substitutions are numbered along the chain they refer to.

How the values were obtained:
Assay in all cases: two-electrode voltage clamp, X. laevis oocytes
Type in all cases: cell-based
[1] = biological target: T1, fTRPA1 (Xenopus tropicalis, UniProt A0A8J0QD66); settings: agonist
T1 construct: gene trpa1; full-length wild type (1144 residues); X. laevis oocytes (cRNA)
T1 sequence (A0A8J0QD66 1-1144): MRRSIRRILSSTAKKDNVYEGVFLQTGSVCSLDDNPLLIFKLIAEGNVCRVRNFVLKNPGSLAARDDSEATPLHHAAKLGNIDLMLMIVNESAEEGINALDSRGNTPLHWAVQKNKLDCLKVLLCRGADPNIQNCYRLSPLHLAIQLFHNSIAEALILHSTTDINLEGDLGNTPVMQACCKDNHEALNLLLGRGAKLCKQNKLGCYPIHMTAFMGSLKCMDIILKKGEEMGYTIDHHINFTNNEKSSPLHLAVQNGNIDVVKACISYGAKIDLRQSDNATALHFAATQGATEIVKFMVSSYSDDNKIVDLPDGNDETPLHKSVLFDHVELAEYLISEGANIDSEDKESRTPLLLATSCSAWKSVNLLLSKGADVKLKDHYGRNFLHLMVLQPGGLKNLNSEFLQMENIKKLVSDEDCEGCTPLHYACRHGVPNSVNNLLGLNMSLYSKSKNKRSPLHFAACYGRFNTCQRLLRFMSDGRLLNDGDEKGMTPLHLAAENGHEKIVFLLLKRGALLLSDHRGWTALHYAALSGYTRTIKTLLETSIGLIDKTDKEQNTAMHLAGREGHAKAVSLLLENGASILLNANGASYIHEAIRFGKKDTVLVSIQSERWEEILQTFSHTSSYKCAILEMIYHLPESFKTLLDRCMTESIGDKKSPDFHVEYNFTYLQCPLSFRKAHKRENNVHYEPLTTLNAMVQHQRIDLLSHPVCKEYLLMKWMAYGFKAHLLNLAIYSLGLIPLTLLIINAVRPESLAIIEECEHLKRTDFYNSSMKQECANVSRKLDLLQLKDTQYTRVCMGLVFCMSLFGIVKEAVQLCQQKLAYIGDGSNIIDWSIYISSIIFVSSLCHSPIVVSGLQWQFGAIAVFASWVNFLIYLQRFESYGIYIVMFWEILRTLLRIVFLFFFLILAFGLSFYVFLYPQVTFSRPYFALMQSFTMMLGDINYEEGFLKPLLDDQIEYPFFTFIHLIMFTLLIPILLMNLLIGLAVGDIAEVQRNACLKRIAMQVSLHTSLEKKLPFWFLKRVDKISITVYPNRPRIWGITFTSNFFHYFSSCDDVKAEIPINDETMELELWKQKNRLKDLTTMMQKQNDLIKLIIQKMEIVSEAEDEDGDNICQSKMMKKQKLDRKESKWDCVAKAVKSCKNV

[2] = biological target: T2, zTRPA1b (Danio rerio, UniProt A0A8M1N2Z4, R860N); settings: antagonist; vs 1 mM CA; pH 7.4, 1.8 mM CaCl2, -60 mV
T2 construct: gene trpa1b; full-length; X. laevis oocytes (cRNA)
T2 sequence (A0A8M1N2Z4 1-1120 R860N): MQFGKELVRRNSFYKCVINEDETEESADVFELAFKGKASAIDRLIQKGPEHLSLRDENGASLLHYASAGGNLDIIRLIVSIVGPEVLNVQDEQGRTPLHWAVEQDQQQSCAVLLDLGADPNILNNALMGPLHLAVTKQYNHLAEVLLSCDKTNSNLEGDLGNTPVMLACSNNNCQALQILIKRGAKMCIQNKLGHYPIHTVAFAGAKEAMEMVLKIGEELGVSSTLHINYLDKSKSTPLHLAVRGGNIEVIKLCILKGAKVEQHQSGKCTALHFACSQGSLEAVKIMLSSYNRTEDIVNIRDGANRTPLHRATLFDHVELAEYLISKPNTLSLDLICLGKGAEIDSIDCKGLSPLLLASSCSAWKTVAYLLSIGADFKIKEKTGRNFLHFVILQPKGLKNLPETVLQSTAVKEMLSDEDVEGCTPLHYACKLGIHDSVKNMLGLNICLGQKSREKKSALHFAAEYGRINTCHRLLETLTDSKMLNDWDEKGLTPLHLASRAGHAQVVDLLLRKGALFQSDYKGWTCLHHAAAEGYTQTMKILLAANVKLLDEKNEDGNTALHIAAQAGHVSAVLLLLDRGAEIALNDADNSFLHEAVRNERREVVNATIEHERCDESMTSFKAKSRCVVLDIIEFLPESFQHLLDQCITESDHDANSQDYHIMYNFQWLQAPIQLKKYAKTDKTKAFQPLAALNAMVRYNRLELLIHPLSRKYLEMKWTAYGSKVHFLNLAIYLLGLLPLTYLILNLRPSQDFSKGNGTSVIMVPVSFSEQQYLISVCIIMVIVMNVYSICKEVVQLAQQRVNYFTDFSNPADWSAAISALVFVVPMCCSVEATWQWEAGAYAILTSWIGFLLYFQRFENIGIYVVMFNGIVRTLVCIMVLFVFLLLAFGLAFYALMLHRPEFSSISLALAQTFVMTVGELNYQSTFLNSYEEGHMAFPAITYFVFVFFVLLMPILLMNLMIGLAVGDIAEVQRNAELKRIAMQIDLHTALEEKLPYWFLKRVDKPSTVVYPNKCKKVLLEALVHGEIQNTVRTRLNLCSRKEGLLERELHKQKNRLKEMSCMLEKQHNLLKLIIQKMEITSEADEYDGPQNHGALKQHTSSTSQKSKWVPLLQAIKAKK

[3] = biological target: T3, hTRPA1 (Homo sapiens, UniProt O75762, N855S); settings: antagonist; vs 0.3 mM CA; pH 7.4, 1.8 mM CaCl2, -60 mV
T3 construct: gene TRPA1; full-length wild type (1119 residues); X. laevis oocytes (cRNA) or HEK293T cells (pcDNA3.1)

[4] = biological target: T4, fTRPA1 (Xenopus tropicalis, UniProt A0A8J0QD66, S880N); settings: antagonist; vs 0.5 mM CA; pH 7.4, 1.8 mM CaCl2, -60 mV
T4 construct: gene trpa1; full-length wild type (1144 residues); X. laevis oocytes (cRNA)
T4 sequence (A0A8J0QD66 1-1144 S880N): T1 sequence (A0A8J0QD66 1-1144) with S880N

[5] = biological target: T5, hTRPA1 (Homo sapiens, UniProt O75762); settings: agonist, non-electrophilic; pH 7.4, -60 mV
T5 construct: gene TRPA1; full-length wild type (1119 residues); X. laevis oocytes (cRNA) or HEK293T cells (pcDNA3.1)
T5 sequence (O75762 whole entry): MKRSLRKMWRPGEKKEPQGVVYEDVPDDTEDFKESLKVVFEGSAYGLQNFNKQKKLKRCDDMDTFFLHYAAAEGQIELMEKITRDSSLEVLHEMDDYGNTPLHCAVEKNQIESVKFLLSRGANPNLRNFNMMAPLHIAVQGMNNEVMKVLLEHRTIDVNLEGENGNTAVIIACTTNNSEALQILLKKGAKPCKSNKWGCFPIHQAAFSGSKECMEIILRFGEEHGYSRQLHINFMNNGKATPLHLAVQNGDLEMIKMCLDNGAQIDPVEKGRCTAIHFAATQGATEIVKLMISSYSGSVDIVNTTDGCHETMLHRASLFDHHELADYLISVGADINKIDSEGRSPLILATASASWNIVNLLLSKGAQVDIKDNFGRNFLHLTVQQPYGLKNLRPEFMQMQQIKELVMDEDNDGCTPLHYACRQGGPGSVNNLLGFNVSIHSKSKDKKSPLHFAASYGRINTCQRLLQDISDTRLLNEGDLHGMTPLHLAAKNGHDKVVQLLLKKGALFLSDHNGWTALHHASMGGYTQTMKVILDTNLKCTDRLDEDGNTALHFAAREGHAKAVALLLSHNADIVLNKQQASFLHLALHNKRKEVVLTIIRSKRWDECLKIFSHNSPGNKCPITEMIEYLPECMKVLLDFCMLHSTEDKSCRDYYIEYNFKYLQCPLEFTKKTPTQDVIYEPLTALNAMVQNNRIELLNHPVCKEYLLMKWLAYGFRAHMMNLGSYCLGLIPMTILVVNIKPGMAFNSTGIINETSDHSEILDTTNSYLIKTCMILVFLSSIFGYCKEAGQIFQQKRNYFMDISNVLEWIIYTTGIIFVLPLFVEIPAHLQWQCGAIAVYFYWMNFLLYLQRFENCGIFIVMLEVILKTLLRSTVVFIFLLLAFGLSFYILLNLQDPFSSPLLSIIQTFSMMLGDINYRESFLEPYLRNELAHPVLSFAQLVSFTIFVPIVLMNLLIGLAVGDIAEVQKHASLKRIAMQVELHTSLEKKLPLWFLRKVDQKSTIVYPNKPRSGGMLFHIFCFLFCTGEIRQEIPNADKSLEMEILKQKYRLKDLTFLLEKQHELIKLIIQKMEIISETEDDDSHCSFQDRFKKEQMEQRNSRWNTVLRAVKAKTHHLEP

T3 sequence (O75762 whole entry N855S): as the sequence (O75762 whole entry) above, with N855S counted along it

SMILES: O=CC=Cc1ccccc1 [CA, cinnamaldehyde]
- two-electrode voltage clamp, X. laevis oocytes ([1]; 0.5 mM, covalent, pH 7.4, 1.8 mM CaCl2, -60 mV): TRPA1-mediated currents were activated by CA with approximately similar amplitude

SMILES: CC(C)c1ccc(NC(=O)Cn2cnc3c2c(=O)n(C)c(=O)n3C)cc1 [HC, HC-030031]
- inhibition at 50 μM [2]: significant reduction in current amplitudes in zTRPA1-R860N although wt-zTRPA1b showed no inhibition
- inhibition at 50 μM [3]: hTRPA1-N855S showed significantly less sensitivity to HC than wt-hTRPA1 at all concentrations examined
- inhibition at 50 μM [4]: HC reduced the CA-evoked currents in the second application in fTRPA1-S880N

SMILES: Cc1ccc(C(C)C)cc1O [carvacrol]
- two-electrode voltage clamp, X. laevis oocytes ([1]; non-electrophilic, pH 7.4, -60 mV): hTRPA1 and fTRPA1 currents activated by the non-electrophilic compound carvacrol
- two-electrode voltage clamp, X. laevis oocytes [5]: hTRPA1 and fTRPA1 currents activated by the non-electrophilic compound carvacrol
